Source: patent US20260232636A1, “INHIBITORS OF LRRK2” (Vanderbilt University, priority 2023, published 2026)

Legend:
[1] = biological target: T1, LRRK2 WT (Homo sapiens, UniProt Q5S007); assay: Cellular phospho-LRRK2 S935 HTRF assay, WT-HEK293 cells; format: cell-based; settings: pS935 LRRK2 Cellular Activity Assay; HEK293 cells stably expressing human LRRK2 WT, 2 hr incubation
Source text: This method utilizes two antibodies, europium-Cryptate (donor) antibody and d2-Cryptate (acceptor) antibody, specifically binding to total and phospho S935 of LRRK2, respectively. When two fluorophores are in close proximity, i.e. activation of kinase, time-resolved fluorescence energy transfer (TR-FRET) occurs where a light source excites europium donor, the 615 nm emission by europium then excites d2 acceptor. […] All cell culture reagents were purchased from Life Technologies, and phospho-LRRK2 S935 assay reagents were from Perkin Elmer (#6FLRKPEH). Briefly, the day before the assay, the cells (5,000 cells/20 μL/well) are prepared in the plating medium (growth medium without G418). […] The activities of inhibitors at WT and GS mutant are measured in separate cell plates.
For full enzyme control and maximum enzyme inhibition wells, 600 nL of DMSO and 0.2 mM MLi-2 were transferred, respectively. The final 2× compound plate is prepared by adding 60 μL of plating medium to each well. […] Compounds are incubated for 2 hrs in 37° C. humidified incubators.
During compound incubation, 4× lysis buffer and 100× blocking buffer are diluted to 1× with H2O. After 2 hr incubation, treatment medium is removed using an ELx405 Microplate washer (Agilent), and 16 μL of lysis/blocking buffer is immediately added to each well in entire plates. The plates are sealed with a plate seal, and placed on a plate shaker for 30 min at room temperature with shaking at 200 rpm.
During the lysis step, 1× antibody working solutions are prepared by diluting 40× Eu-Cryptate antibody and d2-antibody in detection buffer. After the cell plates are spun at 100×g for 1 min, 4 μL of antibody solutions is added to each well in entire plates. The plates are sealed with a plate seal, and placed on a plate shaker for 4 hrs at room temperature with shaking at 200 rpm.

[2] = biological target: T1, LRRK2 WT; assay: Biochemical LRRK2 LanthaScreen TR-FRET kinase assay, wild type

T1 sequence (Q5S007 whole entry): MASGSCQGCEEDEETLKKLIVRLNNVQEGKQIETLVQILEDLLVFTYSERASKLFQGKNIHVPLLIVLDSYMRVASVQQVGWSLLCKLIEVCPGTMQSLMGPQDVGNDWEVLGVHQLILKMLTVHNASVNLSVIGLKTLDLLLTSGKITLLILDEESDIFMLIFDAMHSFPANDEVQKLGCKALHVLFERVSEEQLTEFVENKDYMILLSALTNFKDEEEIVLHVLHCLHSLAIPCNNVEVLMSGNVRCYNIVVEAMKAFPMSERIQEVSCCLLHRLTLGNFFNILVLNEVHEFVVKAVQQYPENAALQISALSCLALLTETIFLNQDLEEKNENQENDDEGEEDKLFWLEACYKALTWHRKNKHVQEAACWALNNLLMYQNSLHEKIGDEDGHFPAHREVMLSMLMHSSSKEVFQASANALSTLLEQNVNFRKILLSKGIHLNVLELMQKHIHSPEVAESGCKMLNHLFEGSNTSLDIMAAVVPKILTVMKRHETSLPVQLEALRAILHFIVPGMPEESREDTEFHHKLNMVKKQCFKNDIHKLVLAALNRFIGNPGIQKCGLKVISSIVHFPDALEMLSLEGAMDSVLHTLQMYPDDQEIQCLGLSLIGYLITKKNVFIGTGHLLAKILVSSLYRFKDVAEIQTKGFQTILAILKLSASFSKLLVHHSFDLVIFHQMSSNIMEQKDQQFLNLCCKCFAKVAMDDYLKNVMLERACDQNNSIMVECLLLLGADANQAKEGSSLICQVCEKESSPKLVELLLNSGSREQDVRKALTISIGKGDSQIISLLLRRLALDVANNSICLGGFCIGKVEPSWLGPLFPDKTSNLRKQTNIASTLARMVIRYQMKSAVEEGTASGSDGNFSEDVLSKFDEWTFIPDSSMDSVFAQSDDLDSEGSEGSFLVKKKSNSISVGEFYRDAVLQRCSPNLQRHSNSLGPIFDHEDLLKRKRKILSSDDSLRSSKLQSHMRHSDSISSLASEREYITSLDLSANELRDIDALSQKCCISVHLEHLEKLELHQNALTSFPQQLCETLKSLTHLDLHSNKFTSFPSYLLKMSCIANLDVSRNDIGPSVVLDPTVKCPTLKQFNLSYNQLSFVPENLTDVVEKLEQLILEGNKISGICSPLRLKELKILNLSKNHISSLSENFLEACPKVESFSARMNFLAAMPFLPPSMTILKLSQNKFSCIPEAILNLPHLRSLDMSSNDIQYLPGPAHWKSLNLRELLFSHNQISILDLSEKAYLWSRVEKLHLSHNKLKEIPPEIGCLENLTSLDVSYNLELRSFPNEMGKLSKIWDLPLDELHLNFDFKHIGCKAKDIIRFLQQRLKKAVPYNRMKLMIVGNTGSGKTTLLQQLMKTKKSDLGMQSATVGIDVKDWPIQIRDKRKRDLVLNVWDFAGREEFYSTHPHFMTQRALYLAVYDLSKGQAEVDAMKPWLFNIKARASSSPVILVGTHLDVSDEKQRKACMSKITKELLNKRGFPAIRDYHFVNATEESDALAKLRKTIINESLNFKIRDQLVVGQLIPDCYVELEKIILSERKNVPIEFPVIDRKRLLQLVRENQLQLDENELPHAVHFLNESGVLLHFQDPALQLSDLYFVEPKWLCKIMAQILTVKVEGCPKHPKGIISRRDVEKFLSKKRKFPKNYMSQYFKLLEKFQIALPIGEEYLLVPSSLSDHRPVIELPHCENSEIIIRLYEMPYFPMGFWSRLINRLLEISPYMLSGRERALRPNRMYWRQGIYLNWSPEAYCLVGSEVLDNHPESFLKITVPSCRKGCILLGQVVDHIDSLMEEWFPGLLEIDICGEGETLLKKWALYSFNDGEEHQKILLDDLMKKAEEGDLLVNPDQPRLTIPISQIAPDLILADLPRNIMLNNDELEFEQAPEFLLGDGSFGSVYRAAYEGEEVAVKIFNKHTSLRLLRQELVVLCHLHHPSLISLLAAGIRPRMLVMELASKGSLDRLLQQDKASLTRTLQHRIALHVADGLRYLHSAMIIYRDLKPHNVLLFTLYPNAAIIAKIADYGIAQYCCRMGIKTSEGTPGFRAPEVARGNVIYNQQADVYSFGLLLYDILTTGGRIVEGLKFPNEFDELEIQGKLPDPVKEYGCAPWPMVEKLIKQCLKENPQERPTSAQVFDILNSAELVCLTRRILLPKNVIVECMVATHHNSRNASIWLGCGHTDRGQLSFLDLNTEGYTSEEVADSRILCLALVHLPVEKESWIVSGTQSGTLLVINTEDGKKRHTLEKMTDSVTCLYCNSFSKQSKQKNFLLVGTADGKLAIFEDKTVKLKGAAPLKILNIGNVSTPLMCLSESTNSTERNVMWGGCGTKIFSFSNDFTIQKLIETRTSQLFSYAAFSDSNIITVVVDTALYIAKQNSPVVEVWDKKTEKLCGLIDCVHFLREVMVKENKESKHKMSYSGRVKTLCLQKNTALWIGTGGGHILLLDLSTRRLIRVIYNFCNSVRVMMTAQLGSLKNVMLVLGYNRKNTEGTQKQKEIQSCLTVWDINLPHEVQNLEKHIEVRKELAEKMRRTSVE

An IC50 [1] of 8430 nM and an IC50 [2] of 156 nM were found for Cc1cc2cnn(-c3cnn(C)c3)c2cc1[C@H]1C[C@@H]2CN(C(=O)c3snnc3C)C[C@@H]2C1 [Compound 9, (4-methyl-1,2,3-thiadiazol-5-yl)((3aR,5s,6aS)-5-(5-methyl-1-(1-methyl-1H-pyrazol-4-yl)-1H-indazol-6-yl)hexahydrocyclopenta[c]pyrrol-2(1H)-yl)methanone] in this work.
Cc1cc2cnn(-c3cnn(C)c3)c2cc1C1=C[C@@H]2CN(C(=O)OC(C)(C)C)C[C@@H]2C1 (racemic) [Compound 2, (rac)-tert-butyl (3aR,6aS)-5-(5-methyl-1-(1-methyl-1H-pyrazol-4-yl)-1H-indazol-6-yl)-3,3a,4,6a-tetrahydrocyclopenta[c] pyrrole-2(1H)-carboxylate] was tested, and the “LRRK2 WT IC50” value [1] was “inactive” and the IC50 [2] was 2290 nM.
An IC50 [1] of 4340 nM and an IC50 [2] of 247 nM were found for Cc1cc2cnn(-c3cnn(C)c3)c2cc1[C@H]1C[C@@H]2CN(C3CCCOC3)C[C@@H]2C1 (mixture of isomers) [Compound 11, (rac)-5-methyl-1-(1-methyl-1H-pyrazol-4-yl)-6-((3aR,5s,6aS)-2-(tetrahydro-2H-pyran-3-yl)octahydrocyclopenta[c]pyrrol-5-yl)-1H-indazole] in this work.
For Cc1cc2cnn(-c3cnn(C)c3)c2cc1[C@@H]1C[C@@H]2CN(C(=O)c3snnc3C)C[C@@H]2C1 [Compound 10, (4-methyl-1,2,3-thiadiazol-5-yl)((3aR,5r,6aS)-5-(5-methyl-1-(1-methyl-1H-pyrazol-4-yl)-1H-indazol-6-yl)hexahydrocyclopenta[c]pyrrol-2(1H)-yl)methanone], the “LRRK2 WT IC50” value [1] was “inactive” and the IC50 [2] was 643 nM.
An IC50 [1] greater than 10000 nM and an IC50 [2] of 716 nM were found for Cc1cc2cnn(-c3cnn(C)c3)c2cc1C1=C[C@@H]2CN(C3CCOCC3)C[C@@H]2C1 (racemic) [Compound 3, (rac)-5-methyl-1-(1-methyl-1H-pyrazol-4-yl)-6-((3aR,6aS)-2-(tetrahydro-2H-pyran-4-yl)-1,2,3,3a,4,6a-hexahydrocyclopenta[c]pyrrol-5-yl)-1H-indazole] in this work.
In the case of COC(=O)N1CCCC(N2C[C@H]3C[C@@H](c4cc5c(cnn5-c5cnn(C)c5)cc4C)C[C@H]3C2)C1 (mixture of isomers) [Compound 19, (rac)-methyl 3-((3aR,5r,6aS)-5-(5-methyl-1-(1-methyl-1H-pyrazol-4-yl)-1H-indazol-6-yl)hexahydrocyclopenta[c]pyrrol-2(1H)-yl)piperidine-1-carboxylate], the “LRRK2 WT IC50” value [1] is reported as “inactive” and the IC50 [2] is reported as 1220 nM.
An IC50 [1] of 7580 nM and an IC50 [2] of 113 nM were found for Cc1cc2cnn(-c3cnn(C)c3)c2cc1C1=C[C@@H]2CNC[C@@H]2C1 (racemic) [Compound 1, (rac)-6-((3aR,6aS)-1,2,3,3a,4,6a-hexahydrocyclopenta[c]pyrrol-5-yl)-5-methyl-1-(1-methyl-1H-pyrazol-4-yl)-1H-indazole] in this work.
In the case of Cc1cc2cnn(-c3cnn(C)c3)c2cc1[C@@H]1C[C@@H]2CN(C3CCCOC3)C[C@@H]2C1 (mixture of isomers) [Compound 12, (rac)-5-methyl-1-(1-methyl-1H-pyrazol-4-yl)-6-((3aR,5r,6aS)-2-(tetrahydro-2H-pyran-3-yl)octahydrocyclopenta[c]pyrrol-5-yl)-1H-indazole], the “LRRK2 WT IC50” value [1] is reported as “inactive” and the IC50 [2] is reported as 642 nM.
In the case of COC(=O)N1CCCC(N2C[C@H]3C[C@H](c4cc5c(cnn5-c5cnn(C)c5)cc4C)C[C@H]3C2)C1 (mixture of isomers) [Compound 18, (rac)-methyl 3-((3aR,5s,6aS)-5-(5-methyl-1-(1-methyl-1H-pyrazol-4-yl)-1H-indazol-6-yl)hexahydrocyclopenta[c]pyrrol-2(1H)-yl)piperidine-1-carboxylate], the “LRRK2 WT IC50” value [1] is reported as “inactive” and the IC50 [2] is reported as 1530 nM.
